In PubChem BioAssay (NCI):
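48-hour exposure; five concentrations; linearly interpolated endpoints. At the GI50, growth is halved. TGI: concentration producing complete growth inhibition.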

These molecules were tested on 786-0 renal (assay: NCI-60 cell line screen, 48 h).

SMILES	GI50	TGI
Cc1c[n+](Cc2ccc3ccccc3c2)cn1Cc1ccc2ccccc2c1	1.71 µM	3.63 µM
Nc1nc(Br)nc2c1ncn2C1CC(O)C(CO)O1 (stereo unspecified)	34.2 µM	> 100 µM
Nc1nc(Nc2ccccc2)c2ncn(Cc3cc4c(cc3Br)OCO4)c2n1	0.0659 µM	16.2 µM
CCOC(=O)N1CCN(C(=O)c2ccc(C(F)(F)F)nc2Nc2cc(Cl)ccc2C)CC1	41.1 µM	> 100 µM
Cc1ccc(Nc2nc(N)c(C(=O)c3ccc(C#N)cc3)s2)cc1	0.529 µM	> 49.8 µM
C#CC(=O)Nc1cccc(Nc2nc3c(c(NCc4ccccc4)n2)CCCC3)c1	< 0.01 µM	< 0.01 µM
CCCCCCCCCc1cc(=O)c2c(O)cccc2o1	–	> 100 µM
N#CC1Nc2ccccc2[C@@H](O)C1O (stereo partly specified)	–	> 100 µM
CC(C)c1ccccc1S(=O)c1ccccc1C(C)(C)O (stereo unspecified)	–	> 100 µM
Cc1c(C2Nc3ccccc3C2C)[nH]c2ccccc12 (stereo unspecified)	12 µM	31.5 µM
CCN(CC)CCNCC(=O)Oc1ccc(/C=C/C(=O)CC(=O)/C=C/c2ccc(OC(=O)CNCCN(CC)CC)c(OC)c2)cc1OC	2.38 µM	5.93 µM
COC(=O)C12C3C4C5(C(=O)OC)C(C1C35C(=O)N(C(C)C)C(C)C)C42C(=O)N(C(C)C)C(C)C (stereo unspecified)	–	> 50 µM
Cc1cc(C)n(CCNCCn2nc(C)cc2C)n1	–	> 100 µM
O=C1CSC(Cc2nc3ccccc3[nH]2)=N1	–	32.6 µM
CCCS(=O)(=O)Nc1ccc(Nc2c3ccccc3nc3ccccc23)c(OC)c1	–	3.49 µM
CN(C)Cc1c[nH]c2c1C(=O)c1c(c(O)c3ccccc3c1O)C2=O	10.5 µM	33.6 µM

Each molecule was assayed on NCI-H23 lung (assay: NCI-60 cell line screen, 48 h).

SMILES	TGI	GI50
N#CC1(C2SCCS2=O)C2=C(C(=O)c3ccccc3C2=O)N2CCCC21 (stereo unspecified)	3.51 µM	–
CC(=O)Oc1ccccc1C(=O)N=C1[Se]CCN1C(=O)c1ccccc1OC(C)=O	5.43 µM	1.56 µM
Cc1n(Cc2ccc3ccccc3c2)cc[n+]1Cc1ccc2ccccc2c1	2.93 µM	0.717 µM
O=C(O)Cc1c(O)ccc2ccccc12	> 100 µM	–
O=C1/C(=C\c2cccn2Cc2ccccc2)c2ccccc2N1c1c(Cl)cccc1Cl	> 100 µM	> 63 µM
Cc1sc2nc(NCCc3c[nH]c4ccc(Cl)cc34)[nH]c(=O)c2c1C	6.22 µM	2.39 µM
CSC1(CC(=O)N(C)C)C(=O)Nc2ccccc21 (stereo unspecified)	> 100 µM	–
COc1cc(/C=C2\C(=O)Nc3ccc(F)cc32)cc(OC)c1OC	> 100 µM	24 µM
C#C[C@]1(O)CC[C@H]2[C@@H]3CC=C4c5sc(Nc6ccccc6)nc5CC[C@]4(C)[C@H]3CC[C@@]21C	13.1 µM	2.37 µM
O=C(O)c1c(-c2nccc3ccccc23)[nH]c(-c2ccccc2)c1S(=O)(=O)O	> 100 µM	–
COc1ccc(/C=c2/sc3n(c2=O)C(c2ccc(OC)c(OC)c2)C2=C(N=3)c3cc(F)ccc3OC2)cc1 (stereo unspecified)	26.1 µM	3.69 µM
O=C(O)c1cc(O)c2c(c1)C(C1c3cc(C(=O)O)cc(O)c3C(=O)c3c(OC4OC(CO)C(O)C(O)C4O)cccc31)c1cccc(OC3OC(CO)C(O)C(O)C3O)c1C2=O (stereo unspecified)	> 100 µM	> 100 µM
O=C(CN(C1CCCCC1)C1CCCCC1)Nc1ccc(S(=O)(=O)c2ccc(NC(=O)CN(C3CCCCC3)C3CCCCC3)cc2)cc1	2.61 µM	1.02 µM
O=c1[nH]c2cc(Cl)ccc2n1C1CCN(CCCC(c2ccc(F)cc2)c2ccc(F)cc2)CC1	3.43 µM	1.74 µM
Cc1c[n+](Cc2ccc3ccccc3c2)cn1Cc1ccc2ccccc2c1	3.97 µM	1.49 µM
Nc1nc(Br)nc2c1ncn2C1CC(O)C(CO)O1 (stereo unspecified)	> 100 µM	1.08 µM
Nc1nc(Nc2ccccc2)c2ncn(Cc3cc4c(cc3Br)OCO4)c2n1	> 100 µM	0.0187 µM
CCOC(=O)N1CCN(C(=O)c2ccc(C(F)(F)F)nc2Nc2cc(Cl)ccc2C)CC1	74.5 µM	14.1 µM
Cc1ccc(Nc2nc(N)c(C(=O)c3ccc(C#N)cc3)s2)cc1	> 100 µM	0.743 µM
CCCCCCCCCc1cc(=O)c2c(O)cccc2o1	> 100 µM	–
N#CC1Nc2ccccc2[C@@H](O)C1O (stereo partly specified)	> 100 µM	–
CC(C)c1ccccc1S(=O)c1ccccc1C(C)(C)O (stereo unspecified)	> 100 µM	–
Cc1c(C2Nc3ccccc3C2C)[nH]c2ccccc12 (stereo unspecified)	32.1 µM	14.5 µM
COC(=O)C12C3C4C5(C(=O)OC)C(C1C35C(=O)N(C(C)C)C(C)C)C42C(=O)N(C(C)C)C(C)C (stereo unspecified)	> 50 µM	–
Cc1cc(C)n(CCNCCn2nc(C)cc2C)n1	> 100 µM	–
O=C1CSC(Cc2nc3ccccc3[nH]2)=N1	43.8 µM	–
CCCS(=O)(=O)Nc1ccc(Nc2c3ccccc3nc3ccccc23)c(OC)c1	8.26 µM	–
CN(C)Cc1c[nH]c2c1C(=O)c1c(c(O)c3ccccc3c1O)C2=O	24.9 µM	9.34 µM

What follows are molecules tested on NCI-H522 lung (assay: NCI-60 cell line screen, 48 h).

SMILES	TGI	GI50
N#CC1(C2SCCS2=O)C2=C(C(=O)c3ccccc3C2=O)N2CCCC21 (stereo unspecified)	5.78 µM	–
CC(=O)Oc1ccccc1C(=O)N=C1[Se]CCN1C(=O)c1ccccc1OC(C)=O	2.7 µM	1.22 µM
Cc1n(Cc2ccc3ccccc3c2)cc[n+]1Cc1ccc2ccccc2c1	1.81 µM	0.256 µM
O=C(O)Cc1c(O)ccc2ccccc12	> 100 µM	–
O=C1/C(=C\c2cccn2Cc2ccccc2)c2ccccc2N1c1c(Cl)cccc1Cl	> 100 µM	> 100 µM
Cc1sc2nc(NCCc3c[nH]c4ccc(Cl)cc34)[nH]c(=O)c2c1C	3.91 µM	1.79 µM
COc1cc(/C=C2\C(=O)Nc3ccc(F)cc32)cc(OC)c1OC	> 100 µM	22.8 µM
C#C[C@]1(O)CC[C@H]2[C@@H]3CC=C4c5sc(Nc6ccccc6)nc5CC[C@]4(C)[C@H]3CC[C@@]21C	6.26 µM	2.27 µM
O=C(O)c1c(-c2nccc3ccccc23)[nH]c(-c2ccccc2)c1S(=O)(=O)O	> 100 µM	–
COc1ccc(/C=c2/sc3n(c2=O)C(c2ccc(OC)c(OC)c2)C2=C(N=3)c3cc(F)ccc3OC2)cc1 (stereo unspecified)	> 100 µM	51.8 µM
O=C(O)c1cc(O)c2c(c1)C(C1c3cc(C(=O)O)cc(O)c3C(=O)c3c(OC4OC(CO)C(O)C(O)C4O)cccc31)c1cccc(OC3OC(CO)C(O)C(O)C3O)c1C2=O (stereo unspecified)	> 100 µM	> 100 µM
O=C(CN(C1CCCCC1)C1CCCCC1)Nc1ccc(S(=O)(=O)c2ccc(NC(=O)CN(C3CCCCC3)C3CCCCC3)cc2)cc1	1.24 µM	0.394 µM
O=c1[nH]c2cc(Cl)ccc2n1C1CCN(CCCC(c2ccc(F)cc2)c2ccc(F)cc2)CC1	3.64 µM	1.82 µM
Cc1c[n+](Cc2ccc3ccccc3c2)cn1Cc1ccc2ccccc2c1	3.05 µM	1.41 µM
Nc1nc(Br)nc2c1ncn2C1CC(O)C(CO)O1 (stereo unspecified)	> 100 µM	0.698 µM
Nc1nc(Nc2ccccc2)c2ncn(Cc3cc4c(cc3Br)OCO4)c2n1	0.207 µM	0.0316 µM
CCOC(=O)N1CCN(C(=O)c2ccc(C(F)(F)F)nc2Nc2cc(Cl)ccc2C)CC1	27.4 µM	4.43 µM
Cc1ccc(Nc2nc(N)c(C(=O)c3ccc(C#N)cc3)s2)cc1	–	0.221 µM
C#CC(=O)Nc1cccc(Nc2nc3c(c(NCc4ccccc4)n2)CCCC3)c1	< 0.01 µM	< 0.01 µM
CCCCCCCCCc1cc(=O)c2c(O)cccc2o1	> 100 µM	–
CC(C)c1ccccc1S(=O)c1ccccc1C(C)(C)O (stereo unspecified)	> 100 µM	–
Cc1c(C2Nc3ccccc3C2C)[nH]c2ccccc12 (stereo unspecified)	26.5 µM	10.8 µM
CCN(CC)CCNCC(=O)Oc1ccc(/C=C/C(=O)CC(=O)/C=C/c2ccc(OC(=O)CNCCN(CC)CC)c(OC)c2)cc1OC	11.6 µM	3.29 µM
COC(=O)C12C3C4C5(C(=O)OC)C(C1C35C(=O)N(C(C)C)C(C)C)C42C(=O)N(C(C)C)C(C)C (stereo unspecified)	> 50 µM	–
Cc1cc(C)n(CCNCCn2nc(C)cc2C)n1	> 100 µM	–
O=C1CSC(Cc2nc3ccccc3[nH]2)=N1	40.4 µM	–
CCCS(=O)(=O)Nc1ccc(Nc2c3ccccc3nc3ccccc23)c(OC)c1	5.33 µM	–
CN(C)Cc1c[nH]c2c1C(=O)c1c(c(O)c3ccccc3c1O)C2=O	35.4 µM	12.6 µM
